In brackets after ≈: the same amount, converted by molar mass.
Experiments:
[1] = system: Staphylococcus isolates (methicillin-sensitive and methicillin-resistant); test: Minimum bactericidal concentration determination (Example 1); type: cell-based; conditions: for bactericidal activity (MBC testing): methicillin-sensitive and methicillin-resistant strains
Description: Following determination of the MIC using the 96 well MIC plate, a variation of the drop plate method was used to determine minimum bactericidal concentration (MBC) for each of the test compounds. These were analysed using samples taken from the MIC plate following incubation. For each compound, a 10 μL drop of each concentration equal to or higher than the MIC was pipetted onto Sheep Blood Agar in a clockwise manner (FIG. 3). Each concentration was pipetted in duplicate with duplicates being pipetted on an inner ring of drops. The plates were incubated at 37° C. overnight and assessed the following day for growth. The MBC was defined as the concentration at which 99.9% of colonies were eradicated, which was visually assessed by a lack of growth on the agar where the drop was placed. […] The MBC values for 50% and 90% of the isolates (MBC50 and MBC90) were calculated and assessed along with the MBC range in order to select compounds for further study.

[2] = system: ATCC 49775 reference strain; test: Microdilution time-kill assay; type: cell-based, Staphylococcus; conditions: for growth (optical density) compared to growth control: over a 48 hour period
Description: Following assessment of MIC and MBC results, two compounds were chosen for analysis using microdilution time-kill assays, LP 1369 and LP 6315 and these were compared to ampicillin. Time-kill assays were performed according to the M26-A guidelines of the CLSI, with modifications. The test compounds and ampicillin were serial diluted in CAMHB across the rows of a 96 well plate and a bacterial suspension was prepared and added in the same manner as the MIC testing. […] The time points assessed were 0, 1, 2, 4, 8, 12, 24 and 48 hours after the addition of the bacterial suspension to the wells. Each test compound was tested in triplicate while ampicillin was tested in duplicate and this test was independently repeated. The bacterial strains used for the microdilution assays were chosen based on bactericidal activity evident during MBC testing. One strain from each of the categories of Staphylococcus in the isolate collection (methicillin-sensitive, methicillin resistant and coagulase negative) were selected as well as the ATCC reference strain for comparison. These strains were strains MSS 1, MSS 11, MRSA 9 and the ATCC 49775 reference strain.

[3] = system: ATCC 49775 reference strain; test: Macrodilution time-kill assay; type: cell-based, Staphylococcus; conditions: 24 hours
Description: (§1) Due to the detection limit of the OD measurements, the time-kill assays were also performed in macrodilution. In 15 mL tubes, 9 mL volumes of the test compounds in CAMHB were prepared at one, four and eight times the MIC concentration and 9 mL volumes of ampicillin were prepared in CAMHB at one and four times the MIC. 1 mL of a 4 to 5×10^6 bacterial suspension (as prepared for MIC testing) was added to each of the tubes as well as a growth control tube containing only 9 mL of CAMHB. These tubes were incubated at 37° C. in an orbital shaker rotating at 100 rpm for 24 hours. At 0, 1, 4, 8, 12 and 24 hours after addition of the bacteria, 100 μL samples were removed from each tube and serial diluted in 9.1 g/L saline solution. The dilutions were then plated in duplicate onto plate count agar and incubated for 24 hours at 37° C. After incubation, viable counts were obtained from the number of colonies visible on the agar and these were used to calculate the number of CFU/mL at each time point. For the macrodilution time-kill analysis, only the ATCC 49775 reference strain and MRSA 9 were assessed in order to further investigate the antibacterial activity against methicillin-resistant strains. These macrodilution time-kill assays were independently repeated and bactericidal activity was defined as a ≥3 log decrease in the number of CFU/mL.

[4] = system: MRSA 9; test: Macrodilution time-kill assay; type: cell-based, Staphylococcus aureus; conditions: 24 hours
Description: as §1

[5] = system: bovine mastitis isolates; test: Minimum inhibitory concentration assay (Example 3); type: cell-based; conditions: for MIC90: 51 Australian bovine mastitis isolates
Text: Fifty-one dairy bovine mastitis isolates, encompassing a variety of bacterial species, were isolated from milk samples collected from dairy farms in rural South Australia by the University of Adelaide Ambulatory Clinic. Cellular morphology observed from Gram stains and catalase testing was used to differentiate Staphylococcus, Streptococcus and Corynebacterium species from Gram-negative species. Further biochemical testing including coagulase, Lancefield grouping, esculin hydrolysis and CAMP tests were used to identify the isolates to species level. Where biochemical test results were not definitive in identifying species, amplification and sequencing of the 16S ribosomal RNA gene was used to confirm the identity of the isolates.
Minimum inhibitory concentration tests were performed in the manner outlined by the CLSI (CLSI 2012). Test compounds were dispensed into a 96-well microtitre tray containing 90 μl of CAMHB in 90 μl volumes and serial diluted to obtain a concentration gradient ranging from 128 μg/ml to 0.25 μg/ml (see FIG. 24). For Streptococcus species, CAMHB was replaced with a CAMHB supplement with 4% lysed-sheep blood (4% LSB:CAMHB). 4% LSB:CAMHB was prepared by mixing 5 ml sheep blood to 5 ml milliQ water, and repeated freezing at −20° C. and thawing, followed by centrifuged for 20 min at 7000 rpm. 7 ml of the supernatant was removed and added to 93 mL of CAMB.
Bacterial suspensions were prepared by emulsifying fresh colonies obtained from an overnight culture on Sheep Blood Agar (SBA) in 4 mls of 9.1 g/l physiological saline to an optical density read at 600 nm (OD600nm) between 1.00 and 1.20. Standardised bacterial suspensions were diluted 1:10 in physiological saline and dispensed into all wells, excluding the negative control wells, in 10 μL volumes giving a final concentration of between 4×10^5 and 5×10^5 CFU/mL in each well. 96-well microtitre trays were incubated for 24 hours at 37° C. in 5% CO2 and then assessed both visually and using OD readings from a microplate reader at a wavelength of 600 nm. These tests were performed in duplicate and repeated if discrepancies in MIC values were observed between replicates.
The minimum inhibitory concentration (MIC) was determined to be the lowest concentration of antibiotic that prevented growth of bacteria both visually and using OD readings. MIC values were collated and used to determine the lowest concentration of each compound effective against 50% and 90% of isolates, known as the MIC50 and MIC90 respectively. These values as well as the range of MIC values were then used for direct comparisons between test compounds and for general comparisons with ampicillin.

Structure (SMILES)	strains against which bactericidal activity was exhibited more consistently [1]	bactericidal activity (MBC testing) [1]	MBC50 (rank among test compounds) ([1]; methicillin-sensitive isolates)	growth (optical density) compared to growth control [2]	decrease in the number of viable bacteria ([3]; all concentrations tested)	decrease in the number of viable bacteria ([4]; all concentrations tested)	MIC values (in words) [5]	antibacterial activity against the bovine mastitis isolates [5]	MIC90 [5]	MBC50 (rank among test compounds) ([1]; methicillin-resistant isolates)	growth at the MIC ([2]; at the MIC, 48 hours)	bactericidal or bacteriostatic (>=3 log decrease in CFU/mL = bactericidal) ([3]; LP 6315: most concentrations)	bactericidal or bacteriostatic (>=3 log decrease in CFU/mL = bactericidal) ([4]; LP 6315: most concentrations)	decrease in colonies ([4]; four times the MIC)
CC[C@@H](C(=O)[C@@H](C)[C@@H](O)[C@H](C)CCc1ccc(C)c(O)c1C(=O)O)[C@H]1O[C@](CC)([C@H]2CC[C@](O)(CC)[C@H](C)O2)C[C@@H]1C [LP 1369, Lasalocid]	methicillin-sensitive strains	some bactericidal activity in lower concentrations	lowest MBC50 values	prevented the growth	< 3 log10	< 3 log10	low MIC values	observed	4 mg/L (≈ 6.77 µM)	–	–	–	–	–
CO[C@@H]1[C@@H](OC)[C@H](C)[C@@](O)(CC(=O)O)O[C@H]1[C@H](C)[C@H]1O[C@@]2(CC[C@@](C)([C@H]3CC[C@@](C)([C@@H]4O[C@@H]([C@H]5O[C@](C)(O)[C@H](C)C[C@@H]5C)C[C@@H]4O[C@@H]4C[C@H](OC)[C@@H](OC)[C@H](C)O4)O3)O2)C[C@H](O)[C@H]1C.N [LP 6315, Maduramicin]	methicillin-sensitive strains	some bactericidal activity in lower concentrations	–	prevented the growth	–	–	low MIC values	observed	4 mg/L	lowest MBC50 values	Some growth was observed after 48 hours	bacteriostatic	bacteriostatic	> 3 log10
